Source: patent publication US11952554B2, “Alkyl polyglycoside-containing cleaning formulations for chemically sensitive individuals” (Living Clean NZ, Ltd., priority 2021, dated 2024)

Legend:
[1] = tested on: chemically sensitive individuals (MCS); design: species or system human; conditions: in vivo
Experimental: Once candidate ingredients are identified and tested as described above, they are evaluated for use in potential cleaning formulations using a blind study protocol. The blind studies used in the course of the instant work were comprised of a specially selected panel of volunteers. […] A panel comprised of just such individuals was used for many aspects of the studies conducted herein. […] See E. A. Krusemark and W. Li, “Enhanced olfactory sensory perception of threat in anxiety: An event-related fMRI study,” Chemosensory Perception, 5 (2012) 37-45; the article in its entirely is herein incorporated by reference.
In the course of the instant work, at least one individual with MCS was used to rank prospective ingredients for acceptability in cleaning formulations based upon sensory responses, which included olfactory as well as skin contact. Instrumental analyses were then implemented to correlate results with sensory ratings from the human panel, and to identify and/or quantify the chemicals detected and deemed to be potentially harmful to humans. Ingredients that were deemed acceptable by the human panel and the instrumental analyses were then used as raw materials for cleaning products described herein. It is believed that this level of pre-screening and testing represents a first in the world for consumer cleaning product formulations work, and has provided an unprecedented level of safety testing for consumer products. Accordingly, in one aspect of the technology newly presented and described herein, a method for providing cleaning formulations for use by the general public and chemically-sensitized individuals, in particular, involves:
Without being bound by theory, it is believed that this phenomenon is due to the non-exact nature of the BCI or RCI measurement (±3% by weight) vis-à-vis the low amounts of contaminants, perhaps much less than 1% by weight, that are present in certain ingredients. To test this hypothesis, a number of chemically sensitive individuals assessed four types of alkyl polyglucosides, or APGs, from three manufacturers, all of which have an apparent BCI/RCI of 100%. Each of the APG candidates was rated on a 3-point index: Acceptable, Marginal, and Unacceptable. The Marginal and Unacceptable candidates were then analyzed for the presence of trace contaminants.
In the manufacture of surfactants, it can be assumed that a small amount, albeit a significant one, of feedstock remains unreacted. This amount can often be less than 1% by weight, but to individuals who are sensitive to such species, the impact can be significant. […] As such, a number of raw materials were evaluated by a number of chemically sensitive individuals for acceptability using the same scale as above.

[2] = cited from earlier work

In the case of Sodium coco sulfate, the “Acceptability Rating” value [1] is reported as “Acceptable”.
In the case of `CCCCCCCCOS(=O)(=O)[O-].[Na+]` [Sodium octyl sulfate (from bio-basis), Sodium octyl sulfate], the “Acceptability Rating” value [1] is reported as “Unacceptable”.
For C8-10 alkyl polyglucoside, the “Acceptability Rating” value [1] was “Unacceptable”.
In the case of C10-16 alkyl polyglucoside, the “Acceptability Rating” value [1] is reported as “Acceptable-”.
For `ClC(Cl)Cl` [Trichloromethane (chloroform), Trichloromethane], the CAA-HAP listing ([2]; Clean Air Act-Hazardous Air Pollutant) is given as “✓”, the CAA-TFS listing ([2]; Clean Air Act-Toxic and Flammable Substances for Accidental Release Prevention) is given as “✓” and the CWA listing ([2]; Clean Water Act-Priority Pollutant) is given as “✓”. The CERCLA listing ([2]; Comprehensive Environmental Response, Compensation, and Liability Act-Hazardous Substance) was “✓”, the EPCRA listing ([2]; Emergency Planning & Community Right to Know Act-Toxic Release Inventory Chemical) was “✓” and the OSHA listing ([2]; Occupational Safety and Health Act-Air Contaminants) was “✓”. For the same compound, the RCRA listing ([2]; Resource Conservation and Recovery Act-Hazardous Constituents) was “✓”.
